Laboratory results as given in patent US8921410B2, “Nicotinic acetylcholine receptor sub-type selective amides of diazabicycloalkanes” (Targacept, Inc., priority 2006, dated 2014).
Where two headings read alike, the source gives them in different places.

Columns and labels:
α7 nAChR subtype = α7 nAChR subtype (Rattus norvegicus (Rat), UniProt Q05941); assay: Radioligand ([3H]MLA) binding at α7 nAChR, rat hippocampus membranes; details: for α7 high through-put screening outcome (Ki not determined): did not bind sufficiently in HTS at α7 to warrant Ki determination
Protocol: Rats (female, Sprague-Dawley), weighing 150-250 g, were maintained on a 12 h light/dark cycle and were allowed free access to water and food supplied by PMI Nutrition International, Inc. Animals were anesthetized with 70% CO2, then decapitated. Brains were removed and placed on an ice-cold platform. […] The homogenate was centrifuged at 18,000×g for 20 min at 4° C. and the resulting pellet was re-suspended in 10 volumes of ice-cold water. After 60 min incubation on ice, a new pellet was collected by centrifugation at 18,000×g for 20 min at 4° C. The final pellet was re-suspended in 10 volumes of buffer and stored at −20° C.
The binding of [^3H]MLA was measured using a modification of the methods of Davies et al., Neuropharmacol. […] [^3H]MLA (Specific Activity=25-35 Ci/mmol) was obtained from Tocris. The binding of [^3H]MLA was determined using a 2 h incubation at 21° C. Incubations were conducted in 48-well micro-titre plates and contained about 200 μg of protein per well in a final incubation volume of 300 μL. The incubation buffer was PBS and the final concentration of [^3H]MLA was 5 nM. The binding reaction was terminated by filtration of the protein containing bound ligand onto glass fiber filters (GF/B, Brandel) using a Brandel Tissue Harvester at room temperature. […] Each filter was washed with PBS (3×1 mL) at room temperature. Non-specific binding was determined by inclusion of 50 μM non-radioactive MLA in selected wells.
The inhibition of [^3H]MLA binding by test compounds was determined by including seven different concentrations of the test compound in selected wells. Each concentration was replicated in triplicate. IC50 values were estimated as the concentration of compound that inhibited 50 percent of specific [^3H]MLA binding.

human α4β2 nAChR subtype = human α4β2 nAChR subtype (Homo sapiens (Human), UniProt P17787+P43681); assay: Radioligand ([3H]nicotine) binding at α4β2 nAChR, SH-EP1/human α4β2 clonal cell membranes; details: [3H]nicotine 5 nM, SH-EP1/human α4β2 membranes; read-out: Human α4β2 Ki
Protocol: Preparation of Membranes from SH-EP1/Human α4β2 Clonal Cells:
Cell pellets from 40 150 mm culture dishes were pooled, and homogenized by Polytron (Kinematica GmbH, Switzerland) in 20 milliliters of ice-cold preparative buffer. The homogenate was centrifuged at 48,000 g for 20 minutes at 4° C. The resulting pellet was re-suspended in 20 mL of ice-cold preparative buffer and stored at −20° C.
(§1) On the day of the assay, the frozen membranes were thawed and spun at 48,000×g for 20 min. The supernatant was decanted and discarded. The pellet was resuspended in Dulbecco's phosphate buffered saline (PBS, Life Technologies) pH 7.4 and homogenized with the Polytron for 6 seconds. Protein concentrations were determined using a Pierce BCA Protein Assay Kit, with bovine serum albumin as the standard (Pierce Chemical Company, Rockford, Ill.).
(§2) Tissue was rinsed 3 times in PBS, pH 7.4. Scintillation fluid was added to filters containing the washed tissue and allowed to equilibrate.
(§3) Data were expressed as disintegrations per minute (DPMs). Within each assay, each point had 2-3 replicates. The replicates for each point were averaged and plotted against the log of the drug concentration.

rat α4β2 nAChR subtype = rat α4β2 nAChR subtype (Rattus norvegicus (Rat), UniProt P09483+P12390); assay: Radioligand ([3H]nicotine) binding at α4β2 nAChR, rat cortex membranes
Protocol: Preparation of Membranes from Rat Cortex:
Rats (female, Sprague-Dawley), weighing 150-250 g, were maintained on a 12 h light/dark cycle and were allowed free access to water and food supplied by PMI Nutrition International, Inc. Animals were anesthetized with 70% CO2, and then decapitated. Brains were removed and placed on an ice-cold platform. […] The homogenate was centrifuged at 18,000×g for 20 min at 4° C. and the resulting pellet was re-suspended in 20 volumes of ice-cold water. After 60 min incubation on ice, a new pellet was collected by centrifugation at 18,000×g for 20 min at 4° C. The final pellet was re-suspended in 10 volumes of buffer and stored at −20° C.
as §1, §2, §3

[1] = [3H]nicotine 5 nM, rat cortex membranes
[2] = [3H]MLA 5 nM, rat hippocampus membranes

α7 nAChR subtype, sequence (Q05941 23-502): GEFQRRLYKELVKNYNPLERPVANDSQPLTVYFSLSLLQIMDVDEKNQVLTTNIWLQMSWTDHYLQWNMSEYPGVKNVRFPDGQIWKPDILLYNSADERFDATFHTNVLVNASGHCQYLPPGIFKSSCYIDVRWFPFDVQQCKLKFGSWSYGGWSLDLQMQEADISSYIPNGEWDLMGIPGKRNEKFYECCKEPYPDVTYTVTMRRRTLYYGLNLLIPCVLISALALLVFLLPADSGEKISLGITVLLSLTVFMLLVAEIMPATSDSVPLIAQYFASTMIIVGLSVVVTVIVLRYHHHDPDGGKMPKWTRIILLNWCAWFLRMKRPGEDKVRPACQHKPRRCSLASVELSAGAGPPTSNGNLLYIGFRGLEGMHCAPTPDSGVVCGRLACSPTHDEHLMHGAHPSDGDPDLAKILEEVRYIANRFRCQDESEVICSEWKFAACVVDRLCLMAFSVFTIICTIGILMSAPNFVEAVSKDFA
human α4β2 nAChR subtype, sequence (P43681 29-627): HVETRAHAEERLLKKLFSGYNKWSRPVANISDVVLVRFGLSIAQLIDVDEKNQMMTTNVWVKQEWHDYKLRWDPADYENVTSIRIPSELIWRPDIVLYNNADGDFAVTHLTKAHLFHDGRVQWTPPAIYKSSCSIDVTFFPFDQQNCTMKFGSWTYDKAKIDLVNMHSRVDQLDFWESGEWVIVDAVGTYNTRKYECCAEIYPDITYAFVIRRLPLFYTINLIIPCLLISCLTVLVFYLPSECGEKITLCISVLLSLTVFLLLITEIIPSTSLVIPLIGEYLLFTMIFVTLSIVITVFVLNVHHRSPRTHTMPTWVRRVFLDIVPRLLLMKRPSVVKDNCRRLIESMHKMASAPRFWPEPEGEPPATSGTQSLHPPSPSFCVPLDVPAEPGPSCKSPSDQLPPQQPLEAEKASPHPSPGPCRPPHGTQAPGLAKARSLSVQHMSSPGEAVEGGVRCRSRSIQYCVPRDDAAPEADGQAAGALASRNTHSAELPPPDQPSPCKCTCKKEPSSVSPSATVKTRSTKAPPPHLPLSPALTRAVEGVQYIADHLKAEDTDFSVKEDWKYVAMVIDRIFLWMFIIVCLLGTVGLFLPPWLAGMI
human α4β2 nAChR subtype, sequence (P17787 26-502): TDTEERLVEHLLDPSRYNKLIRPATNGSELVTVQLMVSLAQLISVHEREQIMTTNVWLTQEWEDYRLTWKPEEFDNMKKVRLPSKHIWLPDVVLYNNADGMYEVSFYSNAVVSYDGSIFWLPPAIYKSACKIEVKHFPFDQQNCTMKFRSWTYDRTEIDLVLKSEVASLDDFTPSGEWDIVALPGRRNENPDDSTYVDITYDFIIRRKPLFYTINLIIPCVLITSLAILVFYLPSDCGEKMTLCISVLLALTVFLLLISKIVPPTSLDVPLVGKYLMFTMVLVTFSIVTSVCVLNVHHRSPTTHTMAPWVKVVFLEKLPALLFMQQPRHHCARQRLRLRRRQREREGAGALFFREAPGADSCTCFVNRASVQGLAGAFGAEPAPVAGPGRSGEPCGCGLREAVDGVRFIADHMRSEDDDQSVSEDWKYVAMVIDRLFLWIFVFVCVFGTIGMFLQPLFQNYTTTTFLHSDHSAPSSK
rat α4β2 nAChR subtype, sequence (P09483 31-630): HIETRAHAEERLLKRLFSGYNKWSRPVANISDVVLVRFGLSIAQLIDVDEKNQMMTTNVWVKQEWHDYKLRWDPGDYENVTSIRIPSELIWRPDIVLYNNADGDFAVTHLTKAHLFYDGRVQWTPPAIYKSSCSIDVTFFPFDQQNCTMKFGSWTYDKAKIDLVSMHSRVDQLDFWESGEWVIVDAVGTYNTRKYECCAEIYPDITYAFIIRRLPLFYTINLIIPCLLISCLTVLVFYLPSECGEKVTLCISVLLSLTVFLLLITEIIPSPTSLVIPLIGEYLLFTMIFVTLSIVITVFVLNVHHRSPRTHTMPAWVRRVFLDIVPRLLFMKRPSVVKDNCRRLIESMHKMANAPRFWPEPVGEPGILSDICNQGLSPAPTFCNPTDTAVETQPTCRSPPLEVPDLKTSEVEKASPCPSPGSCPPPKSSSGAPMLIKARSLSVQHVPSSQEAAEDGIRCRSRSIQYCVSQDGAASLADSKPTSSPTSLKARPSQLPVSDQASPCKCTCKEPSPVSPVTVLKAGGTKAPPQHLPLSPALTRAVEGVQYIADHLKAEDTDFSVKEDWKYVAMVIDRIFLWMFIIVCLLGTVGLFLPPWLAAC
rat α4β2 nAChR subtype, sequence (P12390 25-500): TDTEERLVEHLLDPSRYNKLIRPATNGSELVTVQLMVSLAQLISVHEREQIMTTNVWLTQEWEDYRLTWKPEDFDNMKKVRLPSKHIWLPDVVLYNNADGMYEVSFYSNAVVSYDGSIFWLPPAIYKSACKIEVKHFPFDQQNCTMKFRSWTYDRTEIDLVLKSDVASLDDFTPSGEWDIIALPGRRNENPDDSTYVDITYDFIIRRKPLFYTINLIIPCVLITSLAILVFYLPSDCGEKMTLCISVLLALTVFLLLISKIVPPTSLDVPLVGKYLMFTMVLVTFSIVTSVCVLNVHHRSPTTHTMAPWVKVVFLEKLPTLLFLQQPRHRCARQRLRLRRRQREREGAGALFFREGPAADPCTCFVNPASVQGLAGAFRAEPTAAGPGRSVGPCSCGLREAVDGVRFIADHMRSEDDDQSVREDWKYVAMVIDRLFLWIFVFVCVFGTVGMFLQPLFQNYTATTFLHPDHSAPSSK

| SMILES | α7 high through-put screening outcome (Ki not determined) (α7 nAChR subtype) | Ki (human α4β2 nAChR subtype) [nM] | Ki (rat α4β2 nAChR subtype; [1]) [nM] | Ki (α7 nAChR subtype) [nM] | Ki (α7 nAChR subtype; [2]) [nM] | Ki (rat α4β2 nAChR subtype) [nM] |
| --- | --- | --- | --- | --- | --- | --- |
| O=C(c1ccncc1)N1CC2CNCC2C1 (stereo not drawn) | ND; failed HTS | 160 | 26 | – | – | – |
| O=C(c1ccc(Br)o1)N1CC2CNCC2C1 (stereo not drawn) | – | 73 | 54 | 12000 | – | – |
| O=C(c1ccoc1)N1CC2CNCC2C1 (stereo not drawn) | – | 220 | – | – | 3100 | 53 |
| O=C(c1ccc([N+](=O)[O-])o1)N1CC2CNCC2C1 (stereo not drawn) | – | 31 | 35 | – | 2900 | – |
| COc1cc(C(=O)N2CC3CNCC3C2)on1 (stereo not drawn) | – | 19 | 19 | – | 3500 | – |
| O=C(c1occc1Br)N1CC2CNCC2C1 (stereo not drawn) | – | 1.5 | – | – | 12000 | 1.5 |
| Cc1ccoc1C(=O)N1CC2CNCC2C1 (stereo not drawn) | – | 54 | 44 | – | 25000 | – |
| O=C(c1ccc(C#Cc2ccccc2)o1)N1CC2CNCC2C1 (stereo not drawn) | – | 43 | 230 | – | 3200 | – |
| Cc1ccc(C(=O)N2CC3CNCC3C2)o1 (stereo not drawn) | – | 28 | – | 23000 | – | 130 |
| O=C(c1cc(Br)no1)N1CC2CNCC2C1 (stereo not drawn) | ND; failed HTS | 44 | 17 | – | – | – |
| O=C(c1cc(Br)co1)N1CC2CNCC2C1 (stereo not drawn) | ND; failed HTS | 18 | 29 | – | – | – |
| COc1coc(C(=O)N2CC3CNCC3C2)c1OC (stereo not drawn) | ND; failed HTS | 40 | 140 | – | – | – |
| O=C(c1cc(-c2cc(F)cc(F)c2)co1)N1CC2CNCC2C1 (stereo not drawn) | ND; failed HTS | 24 | 54 | – | – | – |
| O=C(c1cc(-c2ccccc2)co1)N1CC2CNCC2C1 (stereo not drawn) | – | 86 | 260 | – | 12000 | – |
| O=C(c1cc(-c2ccoc2)co1)N1CC2CNCC2C1 (stereo not drawn) | ND; failed HTS | 95 | 110 | – | – | – |
| Cc1cc(C(=O)N2CC3CNCC3C2)no1 (stereo not drawn) | ND; failed HTS | 84 | 150 | – | – | – |
| Cc1ncoc1C(=O)N1CC2CNCC2C1 (stereo not drawn) | – | 9.2 | 15 | – | 210000 | – |
| Cc1nocc1C(=O)N1CC2CNCC2C1 (stereo not drawn) | – | 14 | 24 | – | 56000 | – |
| Cc1cc(C(=O)N2CC3CNCC3C2)on1 (stereo not drawn) | ND; failed HTS | 31 | 32 | – | – | – |
| Cc1occc1C(=O)N1CC2CNCC2C1 (stereo not drawn) | – | 29 | 61 | – | 160000 | – |
| O=CNc1ccc(C(=O)N2CC3CNCC3C2)o1 (stereo not drawn) | ND; failed HTS | 63 | 53 | – | – | – |
| COc1ccoc1C(=O)N1CC2CNCC2C1 (stereo not drawn) | ND; failed HTS | 100 | 353 | – | – | – |
| Cc1cc(C(F)(F)F)c(C(=O)N2CC3CNCC3C2)o1 (stereo not drawn) | ND; failed HTS | 45 | 1000 | – | – | – |
| O=C(c1cc(C(F)(F)F)co1)N1CC2CNCC2C1 (stereo not drawn) | ND; failed HTS | 36 | 320 | – | – | – |
| Cc1oc(C(=O)N2CC3CNCC3C2)cc1Br (stereo not drawn) | ND; failed HTS | 22 | – | – | – | 20 |
| C=Cc1ccoc1C(=O)N1CC2CNCC2C1 (stereo not drawn) | ND; failed HTS | 51 | 140 | – | – | – |
